Two molecules from US6998403B2, “Benzoindoline compounds” (Les Laboratoires Servier, priority 2003, dated 2006) can be followed below.

Marks after values point to notes of the source that are not given here.

For assay [1], the target named is T1, 5-HT2C receptors (Homo sapiens, UniProt P28335).
T1 sequence (P28335 33-458): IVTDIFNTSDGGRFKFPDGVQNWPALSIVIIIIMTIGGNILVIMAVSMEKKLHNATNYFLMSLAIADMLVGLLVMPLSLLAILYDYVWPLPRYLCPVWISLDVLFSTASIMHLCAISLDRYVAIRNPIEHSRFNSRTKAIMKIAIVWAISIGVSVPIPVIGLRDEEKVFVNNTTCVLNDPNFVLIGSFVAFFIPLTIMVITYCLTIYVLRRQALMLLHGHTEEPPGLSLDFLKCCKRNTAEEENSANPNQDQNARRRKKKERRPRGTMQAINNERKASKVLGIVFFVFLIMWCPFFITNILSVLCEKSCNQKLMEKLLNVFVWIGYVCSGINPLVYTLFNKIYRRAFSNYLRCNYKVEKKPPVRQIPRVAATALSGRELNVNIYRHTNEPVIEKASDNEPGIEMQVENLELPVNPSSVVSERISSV
The experiment in a line: Determination of the affinity for 5-HT2C receptors (competition with [3H]-mesulergine). The following applies: 22° C., pH=7.7, IC50 converted into pKi. In kind it is binding. The method, then: The non-specific fraction is defined in the presence of 1 μM mianserin, the latter also being the reference product for each experiment. At the end of the incubation period, the medium is filtered through GF/B-Unifilter filters pre-treated with PEI (0.1%), followed by washing three times with the incubation buffer. The radioactivity retained on the filters is determined by liquid scintillation counting. The binding isotherms are analysed by non-linear regression in order to determine the IC50 values. They are converted into pKi (where Ki is the dissociation constant).

The subject of assay [2] is extracellular concentrations of NA, DA and ACh in the frontal cortex. The assay can be described thus: Measurement of neurotransmitters in the frontal cortex of rats (microdialysis, HPLC). Type of assay: in vivo, rat. The following applies: 10.0 mg/kg s.c.; for ACh, percentage area beneath the curve (%AbC ± S.E.M.): acetylcholine in frontal cortex dialysates of conscious rats; for ACh, percentage area beneath the curve (%AbC ± S.E.M.) / DA, percentage area beneath the curve (%AbC ± S.E.M.) / NA, percentage area beneath the curve (%AbC ± S.E.M.): 20 min. to 120 min. after administration; for DA, percentage area beneath the curve (%AbC ± S.E.M.): dopamine in frontal cortex dialysates of conscious rats; for change in extracellular concentration of ACh (in words) / change in extracellular concentration of DA (in words) / change in extracellular concentration of NA (in words): frontal cortex dialysates of conscious rats; for NA, percentage area beneath the curve (%AbC ± S.E.M.): noradrenaline in frontal cortex dialysates of conscious rats. The procedure:
Measurement of Neurotransmitters in the Frontal Cortex of Rats
The surgery is performed under pentobarbital-induced anaesthesia (60 mg/kg, i.p.). Male Wistar rats, 200–220 g (Iffa Credo, Arbresle, France), are placed in a Kopf stereotaxic device and a cannula guide (CMAMicrodialyse AB, Stockholm, Sweden) is implanted in the frontal cortex at the coordinates (in mm): anteroposterior: +2.2, lateral: ±0.6, ventral deviation: −0.2. The rats are placed in separate cages and recover from the anaesthesia over 5 days. On the day of the dialysis, a Cuprophan CMA/11 probe (length: 4 mm; ext. dia.: 0.24 mm) is introduced into the guide and perfused at 1 μl/min. with a solution of NaCl: 147.2 mM; KCl: 4 mM; CaCl2: 2.3 mM adjusted to pH 7.3 with a phosphate buffer. Two hours after implantation, samples of dialysate are collected every 20 minutes for 4 hours. Three baseline samples are collected before administration of the drug.
Noradrenaline (NA) and dopamine (DA) are measured as follows: 20 μl of dialysate sample are diluted with 20 μl of mobile phase (NaH2PO4: 75 mM, EDTA: 20 μM, sodium decanesulphonate: 1 mM, methanol: 17.5%, triethylamine: 0.01%, pH: 5.70) and 33 μl are analysed by HPLC using, for separation, an inverse-phase column (Hypersil C 18, 150×4.6 mm; particle size 5 μm) thermostatically controlled at 43° C. and, for quantification, a coulometric detector (ESA5014, Coulochem II, ESA, Chelmsford, USA). The potential of the first electrode is −90 mV (reduction) and that of the second +280 mV (oxidation). The mobile phase flow rate is 2 ml/min. The sensitivity limit for NA and DA is 0.2 pg.
Acetylcholine (ACh) is measured and quantified in the absence of acetylcholine esterase (AChE) inhibitor 20 μl of dialysate sample are collected in 10 μl of 0.01% acetic acid. 20 μl aliquots are analysed by HPLC. The mobile phase is composed of Na2HPO4: 50 mM and ProClin: 0.5% (BAS, Congleton, UK), pH 8.2. The stationary phase is composed of a cation-exchange column (Sepstik, 530×1.0 mm, particle size 10 μm, BAS), a pre-column (choline oxidase/catalase enzymatic reactor, 55×1 mm, BAS) and a post-column (choline oxidase/AChE enzymatic reactor, 50×1 mm, BAS). The system is maintained at 35° C. Quantification is carried out by means of an amperometric detector (LC-4B, BAS). A layer of peroxidase-redox polymer is deposited on the vitreous carbon working electrode (MF2098, BAS). The potential of that electrode is +100 mV relative to the Ag/AgCl reference electrode. The mobile phase flow rate is 0.14 ml/min. The sensitivity limit for ACh is 0.1 pg.
The levels of NA, DA and ACh are expressed as the percentage area beneath the curve (% AbC) ±S.E.M. of times 20 min. to 120 min. after administration of the drug. The effects of the compound of Example 1 are compared (ANOVA) with those obtained in animals treated with the solvent or with 6-chloro-5-fluoro-N-[4-methoxy-3-(4-methyl-1-piperazinyl)phenyl]-1-indoline-carboxamide.

`COc1ccc(NC(=O)N2CCc3c2ccc2ccccc32)cc1N1CCN(C)CC1.Cl` [Example 1, N-[4-Methoxy-3-(4-methyl-1-piperazinyl)phenyl]-1,2-dihydro-3H-benzo[e]indole-3-carboxamide Hydrochloride] showed a Ki in assay [1] of 6.31 nM. For the same molecule, in assay [2], the “ACh, percentage area beneath the curve (%AbC ± S.E.M.)” value is “+107.7 ± 13.5^a,b %AbC”; the “DA, percentage area beneath the curve (%AbC ± S.E.M.)” value is reported as “+52.9 ± 6.6^a %AbC”; the “change in extracellular concentration of ACh (in words)” value was “substantial increase”; the “change in extracellular concentration of DA (in words)” value was “substantial increase”. Further, in assay [2], the “change in extracellular concentration of NA (in words)” value is given as “substantial increase” and the “NA, percentage area beneath the curve (%AbC ± S.E.M.)” value is listed as “+105.4 ± 7.3^a,b %AbC”.

Consider `COc1ccc(NC(=O)N2CCc3cc(F)c(Cl)cc32)cc1N1CCN(C)CC1` [Example 11 of application EP-1170288, 6-chloro-5-fluoro-N-[4-methoxy-3-(4-methyl-1-piperazinyl)phenyl]-1-indolinecarboxamide], for which affinity in assay [1] was put at a Ki of 39.8 nM. In addition, in assay [2], the “ACh, percentage area beneath the curve (%AbC ± S.E.M.)” value was “+15.1 ± 12.3 %AbC”; the “DA, percentage area beneath the curve (%AbC ± S.E.M.)” value was “+19.5 ± 4.9 %AbC”; the “change in extracellular concentration of ACh (in words)” value was “no change”; the “change in extracellular concentration of DA (in words)” value is given as “very modest increase”. Further, in assay [2], the “change in extracellular concentration of NA (in words)” value is recorded as “very modest increase” and the “NA, percentage area beneath the curve (%AbC ± S.E.M.)” value is on record as “+39.8 ± 6.7 %AbC”.
